Data taken from US10758478B2, “Active agent loaded uniform, rigid, spherical, nanoporous calcium phosphate particles and methods of making and using the same” (Laboratory Skin Care, Inc., priority 2008, dated 2020).

Key:
[1] = Solubility of salicylic acid (water, ethanol and PEG); assay type: physicochemical
[2] = Binding capacity to hydroxyapatite; assay type: physicochemical

solubility in ethanol and PEG (poly ethylene glycol) ([1]; ethanol and PEG): up to 30%
solubility in water ([1]; water): water insoluble
binding capacity to hydroxyapatite [2]: ≤ 1 mg
Structure (SMILES): O=C(O)c1ccccc1O [Salicylic acid, 2-Hydroxybenzoic acid]
